Our source for the IC50 and inhibition values is US6333338A, “Bispiperidines as antithrombotic agents” (Laboratoire L. Lafon, priority 1998, dated 2001).

A word on the IC50: it is the concentration at which inhibition is half-maximal. A high value points to weaker potency in that assay.

Structures can show the parent of a compound that is named as a salt. Where two headings read alike, the source gives them in different places.

The subject of assay [1] is guinea pig platelets. The assay is described as follows: In vitro inhibition of collagen-induced platelet aggregation, guinea pig platelets (PRP). It is filed as cell-based, guinea pig (male Dunkin-Hartley). Conditions: Cavia porcellus, Platelet, 0.05 h, collagen 1 μg/ml, 3 minutes of contact at 37° C. How it is done:
(§1) A study of the inhibitory activity of the compounds of formula I on platelet aggregation was carried out in vitro, i.e. by direct contact of solutions of variable concentrations of the compounds with platelets freshly separated from a sample of total blood, taken under standardized conditions, from laboratory animals (guinea pigs) and from healthy human subjects who have not received any substances or drugs that might interfere with blood clotting. The anti-platelet-aggregating activity was also studied ex vivo/vitro, i.e. after administration of the substances claimed to guinea pigs to measure the intensity and duration of the anti-aggregating action induced by the fraction of the test product absorbed and circulating in the blood.
Blood is taken by intracardiac puncture from male Dunkin-Hartley guinea pigs (weighing about 330 g), at a rate of 4.5 ml per 0.5 ml of trisodium citrate (concentration of the aqueous solution: 1.55%) in order to prevent all trace of clotting. The platelet-rich plasma (PRP) is obtained by centrifuging the tubes of total blood for 15 minutes at 150 g.
The PRPs are collected as "pools". The platelets contained in these pools are counted using a Coulter ZM haematology automatic device: if necessary, a dilution is carried out in order for the platelet concentration in the plasma to be between 200,000 and 400,000 platelets/mm^3. Simultaneously, other samples of these pools serve to prepare the platelet-poor plasma (PPP) by centrifugation at 1500 g for 15 minutes.
The kinetic study of the platelet aggregation is carried out by adding a collagen solution (1 μg/ml) to a volume of PRP, using a Chrono-log Corporation aggregometer (490-D1 or 560 VS) which uses an optical detection of the appearance of the thrombus.
The measurements of the aggregation inhibition are carried out after 3 minutes of contact at 37° C. with agitation.

In assay [2] the test system is guinea pig platelets. The assay is described as follows: Ex vivo/vitro inhibition of platelet aggregation after administration via the gastric route in guinea pigs. Also noted: species or system guinea pig (Dunkin-Hartley). The settings on record: Cavia porcellus, Platelet, fasted guinea pigs. How it is done:
as §1, with “blood. Evaluation of the anti-platelet-aggregating activity of the compounds is carried out in the same guinea pigs as those mentioned above (Dunkin-Hartley strain). […] The allocation of the treatments to the animals is random. The blood is taken and then treated under the same conditions as those described above for the in vitro studies. The results of the inhibition of the platelet aggregation obtained for each test concentration make it possible to calculate the IC50 concentration of each test product and the kinetics of the inhibitory effect and its duration of action.” for “blood.”

The mark [3] stands for this setting: 1 h before blood sampling, read-out: % of g.r. inhibition guinea pig ex vivo, d = 10 mg/kg, 1 h.
Setting [4] is: 2 h before blood sampling, read-out: % of g.r. inhibition guinea pig ex vivo, d = 10 mg/kg, 2 h.
Where [5] appears, read: 1 h before blood sampling, read-out: % of g.r. inhibition guinea pig ex vivo, d = 150 mg/kg, 1 h.
Where [6] appears, read: 2 h before blood sampling, read-out: % of g.r. inhibition guinea pig ex vivo, d = 150 mg/kg, 2 h.

Compound `CC(=O)Nc1nc(C)c(S(=O)(=O)NC(CNC(=O)CNC(=O)C(CCC2CCNCC2)CCC2CCNCC2)C(=O)O)s1` (stereo not drawn) [Example 50, 2-({[2-(Acetylamino)-4-methyl-1,3-thiazol-5-yl]sulphonyl}amino)-3-{[2-({4-(4-piperidyl)-2-[2-(4-piperidyl)ethyl]butanoyl}amino)acetyl]amino}propanoic Acid Dihydrochloride] yielded an IC50 in the assay on guinea pig platelets [1] of 3300 nM. Besides, the inhibition at 10 mg/kg in the assay with guinea pig platelets [2] (setting [3]) is -22%; in the assay with guinea pig platelets [2] (setting [4]), -39%.
`O=C(CNC(=O)C(CCC1CCNCC1)CCC1CCNCC1)NC[C@H](NS(=O)(=O)c1ccc(-c2cccs2)cc1)C(=O)O` [Example 65, 2-({[4-(2-Thienyl)phenyl]sulphonyl}amino) 3-{[2-({4-(4-piperidyl)-2-[2-(4-piperidyl)ethyl]butanoyl}amino)acetyl]amino}propanoic Acid Dihydrochloride] gave an IC50 in the assay with guinea pig platelets [1] of 200 nM. In addition, the results for the inhibition at 10 mg/kg in the assay with guinea pig platelets [2] (setting [3]) and in the assay with guinea pig platelets [2] (setting [4]) were -65% and -12%, respectively.
In turn, `O=C(CNC(=O)C(CCC1CCNCC1)CCC1CCNCC1)NC[C@H](NS(=O)(=O)c1cccnc1)C(=O)O` [Example 56, 2-[(3-Pyridylsulphonyl)amino]3-{[2-({4-(4-piperidyl)-2-[2-(4-piperidyl)ethyl]butanoyl}amino)acetyl]amino}propanoic Acid Trihydrochloride] gave a half-inhibitory concentration (IC50) in the assay with guinea pig platelets [1] of 230 nM. For the same compound, the inhibition at 10 mg/kg was -61% in the assay on guinea pig platelets [2] (setting [3]) and -50% with guinea pig platelets [2] (setting [4]).
The compound `O=C(CNC(=O)C(CCC1CCNCC1)CCC1CCNCC1)NCC(NC(=O)c1ccc2c(c1)OCO2)C(=O)O` (stereo not drawn) [Example 25, 2-[(1,3-Benzodioxol-5-ylcarbonyl)amino]-3-{[2-({4-(4-piperidyl)-2-[2-(4-piperidyl)ethyl]butanoyl}amino)acetyl]amino}propanoic Acid Dihydrochloride] gave an IC50 in the assay with guinea pig platelets [1] of 29000 nM. Besides, the inhibition at 150 mg/kg in the assay with guinea pig platelets [2] (setting [5]) was -33%; with guinea pig platelets [2] (setting [6]), -48%.
In the assay on guinea pig platelets [1], `CS(=O)(=O)c1ccc(S(=O)(=O)NC(CNC(=O)CNC(=O)C(CCC2CCNCC2)CCC2CCNCC2)C(=O)O)cc1` (stereo not drawn) [Example 32, 2-({[4-(Methylsulphonyl)phenyl]sulphonyl}amino)-3-{[2-({4-(4-piperidyl)-2-[2-(4-piperidyl)ethyl]butanoyl}amino)acetyl]amino}propanoic Acid Dihydrochloride] registered an IC50 of 12000 nM. The inhibition at 10 mg/kg with guinea pig platelets [2] (setting [3]) and in the assay with guinea pig platelets [2] (setting [4]) was -8% each time.
`O=C(CNC(=O)C(CCC1CCNCC1)CCC1CCNCC1)NCC(NS(=O)(=O)c1ccc2c(c1)CCCC2)C(=O)O` (stereo not drawn) [Example 72, 2-[(5,6,7,8-Tetrahydro-2-naphthalenylsulphonyl)amino]3-{[2-({4-(4-piperidyl)-2-[2-(4-piperidyl)ethyl]butanoyl}amino)acetyl]amino}propanoic Acid Dihydrochloride]: 340 nM corresponded to half-maximal inhibition in the assay with guinea pig platelets [1] (IC50). The inhibition at 10 mg/kg was -60% in the assay on guinea pig platelets [2] (setting [3]) and -67% with guinea pig platelets [2] (setting [4]).
The matching figures for `O=C(CNC(=O)C(CCC1CCNCC1)CCC1CCNCC1)NCC(NS(=O)(=O)c1ccc(C2CCCCC2)cc1)C(=O)O` (stereo not drawn) [Example 61, 2-{[(4-Cyclohexylphenyl)sulphonyl]amino)-3-{[2-({4-(4-piperidyl)-2-[2-(4-piperidyl)ethyl]butanoyl}amino)acetyl]amino}propanoic Acid Dihydrochloride]: 1400 nM, -21% and -9%.
The like results for `O=C(CNC(=O)C(CCC1CCNCC1)CCC1CCNCC1)NC[C@H](NS(=O)(=O)c1ccc2c(c1)OCO2)C(=O)O` [Example 57, 2-[(1,3-Benzodioxol-5-ylsulphonyl)amino]-3-{[2-({4-(4-piperidyl)-2-[2-(4-piperidyl)ethyl]butanoyl}amino)acetyl]amino}propanoic Acid Dihydrochloride] were, in that order, 830 nM, -38% and -24%.
In the assay on guinea pig platelets [1], `Cc1cccc(S(=O)(=O)NC(CNC(=O)CNC(=O)C(CCC2CCNCC2)CCC2CCNCC2)C(=O)O)c1` (stereo not drawn) [Example 40, 2-{[(3-Methylphenyl)sulphonyl]amino}-3-{[2-({4-(4-piperidyl)-2-[2-(4-piperidyl)ethyl]butanoyl}amino)acetyl]amino}propanoic Acid Dihydrochloride] displayed an IC50 of 400 nM. The results for the inhibition at 10 mg/kg in the assay with guinea pig platelets [2] (setting [3]) and with guinea pig platelets [2] (setting [4]) were -32% and -10%, respectively.
As for `O=C(CNC(=O)C(CCC1CCNCC1)CCC1CCNCC1)NCC(NS(=O)(=O)Cc1ccc2ccccc2c1)C(=O)O` (stereo not drawn) [Example 69, 2-{[(2-Naphthylmethyl)sulphonyl]amino}-3-{[2-({4-(4-piperidyl)-2-[2-(4-piperidyl)ethyl]butanoyl}amino)acetyl]amino}propanoic Acid Dihydrochloride], inhibition in the assay on guinea pig platelets [1] was half-maximal at 1900 nM (IC50). Further, the inhibition at 10 mg/kg is -69% with guinea pig platelets [2] (setting [3]) and -3% in the assay on guinea pig platelets [2] (setting [4]).
Turning to `O=C(CNC(=O)C(CCC1CCNCC1)CCC1CCNCC1)NCC(NS(=O)(=O)c1cccc(C(F)(F)F)c1)C(=O)O` (stereo not drawn) [Example 44, 2-({[3-(Trifluoromethyl)phenyl]sulphonyl}amino)-3-{[2-({4-(4-piperidyl)-2-[2-(4-piperidyl)ethyl]butanoyl}amino)acetyl]amino}propanoic Acid Dihydrochloride], half-maximal inhibition with guinea pig platelets [1] (IC50) was put at 510 nM. Also, the inhibition at 10 mg/kg with guinea pig platelets [2] (setting [3]) is -22%; in the assay with guinea pig platelets [2] (setting [4]), -35%.
With `O=C(CNC(=O)C(CCC1CCNCC1)CCC1CCNCC1)NCC(NS(=O)(=O)c1ccccc1-c1cccs1)C(=O)O` (stereo not drawn) [Example 66, 2-({[2-(2-Thienyl)phenyl]sulphonyl}amino) 3-{[2-({4-(4-piperidyl)-2-[2-(4-piperidyl)ethyl]butanoyl}amino)acetyl]amino}propanoic Acid Dihydrochloride], half-maximal inhibition with guinea pig platelets [1] (IC50) was put at 350 nM. Besides, the values for the inhibition at 10 mg/kg with guinea pig platelets [2] (setting [3]) and in the assay with guinea pig platelets [2] (setting [4]) were -18% and 0%, respectively.
In the assay on guinea pig platelets [1], `O=C(O)COc1cccc(C(CC(=O)O)NC(=O)CNC(=O)C(CCC2CCNCC2)CCC2CCNCC2)c1` (stereo not drawn) [Example 9, 3-[(3-Carboxymethoxy)phenyl]-3-{[2-({4-(4-piperidyl)-2-[2-(4-piperidyl)ethyl]butanoyl}amino)acetyl]amino}-propanoic Acid Dihydrochloride] registered a half-maximal inhibitory concentration (IC50) of 5000 nM. For the same compound, the inhibition at 150 mg/kg was -53% with guinea pig platelets [2] (setting [5]) and -5% with guinea pig platelets [2] (setting [6]).
`Cc1noc(C)c1S(=O)(=O)NC(CNC(=O)CNC(=O)C(CCC1CCNCC1)CCC1CCNCC1)C(=O)O` (stereo not drawn) [Example 48, 2-{[(3,5-Dimethyl-4-isoxazolyl)sulphonyl]amino}-3-{[2-({4-(4-piperidyl)-2-[2-(4-piperidyl)ethyl]butanoyl}amino)acetyl]amino}propanoic Acid Dihydrochloride] returned an IC50 in the assay with guinea pig platelets [1] of 420 nM. The results for the inhibition at 10 mg/kg in the assay with guinea pig platelets [2] (setting [3]) and in the assay with guinea pig platelets [2] (setting [4]) were -61% and -15%, respectively.
Regarding `COc1ccc(C(CC(=O)O)NC(=O)CNC(=O)C(CCC2CCNCC2)CCC2CCNCC2)cc1` (stereo not drawn) [Example 7, 3-(4-Methoxyphenyl)-3-{[2-({4-(4-piperidyl)-2-[2-(4-piperidyl)ethyl]butanoyl}amino)acetyl]amino}propanoic Acid Dihydrochloride], the IC50 in the assay with guinea pig platelets [1] is 10000 nM. The inhibition at 150 mg/kg was -39% in the assay on guinea pig platelets [2] (setting [5]) and 0% in the assay with guinea pig platelets [2] (setting [6]).
For `O=C(CNC(=O)C(CCC1CCNCC1)CCC1CCNCC1)NCC(NS(=O)(=O)c1ccc2c(c1)CCC2)C(=O)O` (stereo not drawn) [Example 70, 2-[(2,3-Dihydro-1H-inden-5-ylsulphonyl)amino]-3-{[2-({4-(4-piperidyl)-2-[2-(4-piperidyl)ethyl]butanoyl}amino)acetyl]amino}propanoic Acid Dihydrochloride], in the assay on guinea pig platelets [1], the concentration for half-maximal inhibition (IC50) was found to be 400 nM. In addition, the inhibition at 10 mg/kg with guinea pig platelets [2] (setting [3]) is -32%; with guinea pig platelets [2] (setting [4]), -34%.
